What all share (assay type): cell-based, human
For assay [1], the system named is pancreatic endoderm differentiations of hESCs. The experiment in a line: Suspension aggregate differentiation to pancreatic endoderm after Stage 1 treatment, Q-PCR. The settings on record: Stage 1 cultures treated with 0.1 μM Caffeic acid or 0.17 μM Ivermectin. The procedure:
FIGS. 10A-10I are bar graphs showing the relative gene expression levels of OCT4 (FIG. 10A), MIXL (FIG. 10B), HNF1B (FIG. 10C), HNF4A (FIG. 10D), PAX4 (FIG. 10E), NGN3 (FIG. 10F), NKX2.2 (FIG. 10G), NKX6.1 (FIG. 10H), and PTF1A (FIG. 10I) after treatment of suspension aggregate cell cultures at Stages 1 with DMSO (Control), 0.1 μM Caffeic acid or 0.17 μM Ivermectin agents. Untreated control samples were collected at d0 and d1 (left panel). Treated samples were collected at d2, d3, d5, d7, d9, d11, and d13. The columns for each day of the treated samples are (from left to right): DMSO, Caffeic acid, and Ivermectin. The cultures were differentiated to the end of Stage 4. The results from an untreated, pancreatic endoderm differentiation are shown on the right, with samples collected on days 0, 1, 2, 5, 8, 10 and 14.
To further determine the effects of the above compounds (excluding those compounds that induced off-target differentiation), three selected compounds (chelerythrine chloride (FIGS. 5 & 6), caffeic acid and Ivermectin) were screened for effects on later stages of pancreatic differentiation, (such as Stages 2-5). Human ESCs were first differentiated through Stage 1 then to Stages 2 to 5 in suspension aggregate cultures similar to that above. Stage 1 cultures were treated with DMSO, caffeic acid or Ivermectin substantially as described above. Untreated control samples were collected at d0 (hESC) and d1 (FIG. 10, left panel), while treated samples were collected at days 2, 3, 5, 7, 9, 11 and 13 (FIG. 10 d2, d3, d5, d7, d9, d11 and d13 respectively). Gene expression levels in the collected samples were analyzed using Q-PCR and compared to the d0 (hESC) sample as well as qualified pancreatic endoderm (FIG. 10, right panel). The qualified pancreatic endoderm control consisted of about 50% pancreatic endoderm, about 46% endocrine cells and about 4% “other” cells as determined by flow cytometry. Neither caffeic acid nor Ivermectin affected survival, growth and/or proliferation of pancreatic endoderm differentiations. […] Typical gene expression levels for Stages 3, 4 and 5 cells were normal; for example, increased expression of NKX6.1 and PTF1A at Stage 4, pancreatic endoderm (FIGS. 10H and 10I), and of NGN3 and NKX2.2 at Stage 5, endocrine precursor and endocrine cells (FIGS. 10 F and 10G) was observed.

Assay [2] concerns undifferentiated hESCs growing in adherent culture. Briefly: EC50 of cytotoxic effect on undifferentiated hESCs in adherent culture, real-time impedance assay. The settings on record: Homo sapiens, read-out: EC50 concentrations for hES cells (cytotoxic effect). The procedure:
In summary, the final three (3) candidates identified from both the primary and secondary screens (EXAMPLE 1) and the full screen of the LOPAC1280™ collection (EXAMPLE 2) were Chelerythrine Chloride, Caffeic acid and Ivermectin. FIG. 11 lists the known or inferred mode(s) of action for these three compounds, as well as their structures. EC50 values for the respective cytotoxic effects on undifferentiated hESCs growing in adherent culture were determined using real-time impedance assays.
(§1) Depletion of OCT4-positive cells during Stage 1 differentiation was examined using the plating assay described above. Stage 1 differentiations of hES cells were treated from day 1 to 2 with the candidate compounds as described in Example 2 (chelerythrine chloride, caffeic acid and Ivermectin), at their EC50 concentrations for hES cells. Plated untreated and DMSO-treated aggregates were indistinguishable, and both contained discrete clusters of OCT4-positive cells. See FIG. 13A top and bottom panels for a DMSO treated example. The intensity of OCT4-positive staining in differentiating aggregate cell cultures treated with DMSO (control) was equivalent to undifferentiated hES cells.

Assay [3] relates to OCT4-positive cells in Stage 1 differentiations of hES cells. Briefly: Plating assay for depletion of OCT4-positive cells in Stage 1 suspension aggregates, OCT4 immunostaining. The procedure: Human ES cell suspension aggregates were formed in rotational culture as described previously and differentiated through Stage 1 (definitive endoderm). About 20-30 aggregates were then plated per well in 4-well tissue culture dishes coated with MATRIGEL· diluted 1:200, and cultured for 24 hours in hESC medium (DMEM/F12, 10% XF-KSR, 10 ng/mL Activin A and 10 ng/mL Heregulin). This approach was intended to increase the contrast in OCT4 expression between undifferentiated hESCs and cells committed to differentiation. […] Stated in another way, mixed population cell cultures in hESC medium would potentially support expansion/proliferation of residual undifferentiated (hESCs), thereby show increased OCT4 gene expression, as compared to cells committed to differentiation, which would have decreased of OCT4 gene expression. Plated aggregates were immunostained for OCT4 protein and counterstained with DAPI, a nuclear stain (FIG. 12). The cell aggregates that were plated had flattened and spread out within a 24-hour period; while the centers of the aggregates were still domed. […] Brightly staining OCT4-positive cells were easily identified and distinguishable from the majority of OCT4 negative cells. OCT4-positive cells were generally found in clusters and most often within the domed area of a plated aggregate. […] Smaller aggregates residing in a larger aggregate may occur as a result of the initial stages of rotational culture, or the aggregation process, during which small clusters (primary aggregates) form initially. Aggregation of two or more primary aggregates likely leads to the formation of larger secondary aggregates, which can be 100-150 μm in diameter. Thus, it is possible that any single clusters of OCT4-positive cells exist at the center of a primary aggregate and resist differentiation. Such clusters would remain substantially undifferentiated and stain OCT4-positive. One hypothesis is that primary aggregates are specified to differentiation relative to their positioning in primary and secondary aggregates. For example, FIGS. 12A through 12E show a representative series of images, from small (primary) (e.g. FIGS. 12A and 12B) and larger (secondary) (e.g. FIGS. 12C-12E) plated aggregates containing OCT4-positive clusters (dark circles).
as §1
Additional experiments were performed using higher concentrations of compounds and extended effects of the compounds in cell culture plated aggregates in hESC medium for 24 or 72 hours before staining (FIGS. 15 and 16). […] Another group of Stage 1 differentiating cultures were processed in parallel, but treated with 10 μm chelerythrine chloride.

The results in this text go back to patent US9365830B2, “Agents and methods for inhibiting human pluripotent stem cell growth” (VIACYTE, INC., priority 2010, dated 2016).

Consider `O=C(O)C=Cc1ccc(O)c(O)c1` [caffeic acid, 3,4-dihydroxycinnamic acid], for which, in assay [1] (Q-PCR d2-d13), the “Typical gene expression levels for Stages 3, 4 and 5 cells (NKX6.1, PTF1A, NGN3, NKX2.2)” value is on record as “normal”. Besides, the “survival, growth and/or proliferation of pancreatic endoderm differentiations (pancreatic endoderm viability)” value in assay [1] (differentiated to end of Stage 4) is reported as “did not affect pancreatic endoderm viability”. Further, in assay [2], the EC50 is 100 nM. For the same compound, the “size of clusters of OCT4-positive cells” value in assay [3] (5 or 10 μm caffeic acid, 24 hours, vs DMSO-treated (or untreated) controls) is recorded as “smaller in size”. The “expansion of clusters of OCT4-positive cells” value in assay [3] (5 or 10 μm caffeic acid, 72 hours, vs DMSO treated control) is listed as “did not expand substantially”. The “size of OCT4-positive clusters” value in assay [3] (another study, 0.1 μM caffeic acid, 24 hours after plating in hESC medium (FIG. 14, BG02)) was “even more substantial decrease”. In addition, the “intensity for OCT4 staining” value in assay [3] (treated day 1 to 2 of Stage 1 at EC50 concentration, plated 24 hours in hESC medium, vs untreated or DMSO) was “significantly decreased”.
